Data reported in patent US11180474B2 (BRISTOL-MYERS SQUIBB COMPANY, priority 2016, dated 2021).

Tests used:
human TLR8 = target: T1, human TLR8 (Homo sapiens, UniProt Q9NR97); assay: TLR8 inhibition reporter assay (HEK-Blue cells, SEAP reporter, R848 stimulation); type: cell-based; settings: HEK-Blue cells overexpressing human TLR8, R848 15.9 μM
T1 construct: host or cells: HEK-Blue cells
T1 sequence (Q9NR97 27-1041): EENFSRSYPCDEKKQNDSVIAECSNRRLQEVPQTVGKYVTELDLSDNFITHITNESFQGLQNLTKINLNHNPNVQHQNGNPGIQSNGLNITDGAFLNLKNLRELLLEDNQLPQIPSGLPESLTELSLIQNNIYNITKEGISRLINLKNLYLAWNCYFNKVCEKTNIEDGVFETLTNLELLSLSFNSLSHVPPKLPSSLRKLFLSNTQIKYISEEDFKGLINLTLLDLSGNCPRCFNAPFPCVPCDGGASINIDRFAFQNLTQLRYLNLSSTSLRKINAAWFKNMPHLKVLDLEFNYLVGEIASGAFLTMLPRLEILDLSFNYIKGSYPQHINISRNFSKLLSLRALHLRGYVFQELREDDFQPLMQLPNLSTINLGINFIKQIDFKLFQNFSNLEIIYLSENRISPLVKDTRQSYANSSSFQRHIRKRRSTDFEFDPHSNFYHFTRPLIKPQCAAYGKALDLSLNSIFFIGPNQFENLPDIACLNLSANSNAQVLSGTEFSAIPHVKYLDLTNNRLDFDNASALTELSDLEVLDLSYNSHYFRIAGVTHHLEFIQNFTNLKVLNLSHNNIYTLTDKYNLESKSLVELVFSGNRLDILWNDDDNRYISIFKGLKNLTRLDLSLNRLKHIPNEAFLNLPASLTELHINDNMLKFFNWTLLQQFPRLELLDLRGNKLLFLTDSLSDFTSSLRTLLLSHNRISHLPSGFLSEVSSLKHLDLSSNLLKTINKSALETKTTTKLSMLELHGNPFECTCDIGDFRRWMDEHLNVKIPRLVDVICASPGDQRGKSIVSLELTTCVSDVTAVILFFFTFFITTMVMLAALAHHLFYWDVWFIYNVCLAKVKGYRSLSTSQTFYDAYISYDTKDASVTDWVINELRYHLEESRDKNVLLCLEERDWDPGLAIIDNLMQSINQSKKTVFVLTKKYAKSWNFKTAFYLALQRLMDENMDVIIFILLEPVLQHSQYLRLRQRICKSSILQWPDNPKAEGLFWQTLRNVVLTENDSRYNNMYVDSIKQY
In short: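 In this cell reporter format, test compounds at 0.05 nM-50 μM final incubate 22 h with seeded cells (TLR7 15000, TLR8 20,000 per well). SEAP read-out by HEK-Blue Detection medium yields % inhibition relative to agonist/DMSO and known-inhibitor wells.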

human TLR9 = target: T2, human TLR9 (Homo sapiens, UniProt Q9NR96); assay: TLR9 inhibition reporter assay (HEK-Blue cells, SEAP reporter, ODN2006 stimulation); type: cell-based; settings: HEK-Blue cells overexpressing human TLR9, ODN2006 5 nM
T2 construct: host or cells: HEK-Blue cells
T2 sequence (Q9NR96 26-1032): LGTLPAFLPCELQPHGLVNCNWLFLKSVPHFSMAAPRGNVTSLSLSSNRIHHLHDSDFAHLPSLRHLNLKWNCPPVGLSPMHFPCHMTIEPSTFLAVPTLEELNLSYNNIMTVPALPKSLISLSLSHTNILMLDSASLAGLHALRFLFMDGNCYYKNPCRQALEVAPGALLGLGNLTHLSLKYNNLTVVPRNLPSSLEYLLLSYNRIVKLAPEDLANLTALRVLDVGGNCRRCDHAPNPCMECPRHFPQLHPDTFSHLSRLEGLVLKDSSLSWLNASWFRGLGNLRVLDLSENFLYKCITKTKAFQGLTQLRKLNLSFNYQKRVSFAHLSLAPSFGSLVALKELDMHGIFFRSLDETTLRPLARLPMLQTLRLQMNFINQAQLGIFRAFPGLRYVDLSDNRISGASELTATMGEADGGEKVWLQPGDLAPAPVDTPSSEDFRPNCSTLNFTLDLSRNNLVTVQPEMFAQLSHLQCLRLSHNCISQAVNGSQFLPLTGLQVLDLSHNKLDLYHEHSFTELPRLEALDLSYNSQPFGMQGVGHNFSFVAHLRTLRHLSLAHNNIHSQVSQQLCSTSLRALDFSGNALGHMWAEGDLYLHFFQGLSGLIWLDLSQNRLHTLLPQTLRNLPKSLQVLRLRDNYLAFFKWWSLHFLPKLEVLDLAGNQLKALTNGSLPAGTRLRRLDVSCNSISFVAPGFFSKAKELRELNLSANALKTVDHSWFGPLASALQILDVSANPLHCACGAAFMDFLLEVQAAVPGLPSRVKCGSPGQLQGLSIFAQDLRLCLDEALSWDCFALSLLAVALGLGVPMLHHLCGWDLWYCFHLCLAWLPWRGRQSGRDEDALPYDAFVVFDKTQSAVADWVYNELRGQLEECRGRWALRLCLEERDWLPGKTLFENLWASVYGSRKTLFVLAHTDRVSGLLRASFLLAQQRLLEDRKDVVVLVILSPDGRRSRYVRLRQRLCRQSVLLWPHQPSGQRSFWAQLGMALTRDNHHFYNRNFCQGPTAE
In short: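 Dose–response from 0.05 nM to 50 μM was run in HEK-Blue human TLR7, TLR8 and TLR9 reporter cells. After 30 min at room temperature with compound, ligand was added (TLR7 gardiquimod 7.5 μM; TLR8 R848 15.9 μM; TLR9 ODN2006 5 nM) and SEAP measured next day, at 22 h.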

Compound	IC50 (human TLR8) [nM]	IC50 (human TLR9) [nM]
COc1ccc(-c2[nH]c3ccc(C4CCN(C(=O)CN5CCC[C@H](C(=O)N6CCCC(O)C6)C5)CC4)cc3c2C(C)C)cc1OC (stereo partly drawn) [Example 292, 1-(4-(2-(3,4-dimethoxyphenyl)-3-isopropyl-1H-indol-5-yl)piperidin-1-yl)-2-((3S)-3-(3-hydroxypiperidine-1-carbonyl)piperidin-1-yl)ethan-1-one]	22	1810
COc1ccc(-c2[nH]c3ccc(C4CCN(C(=O)CN5CCC[C@H](C(=O)N6CCN(CCN7CCCC7)CC6)C5)CC4)cc3c2C(C)C)cc1OC [Example 293, (S)-1-(4-(2-(3,4-dimethoxyphenyl)-3-isopropyl-1H-indol-5-yl)piperidin-1-yl)-2-(3-(4-(2-(pyrrolidin-1-yl)ethyl)piperazine-1-carbonyl)piperidin-1-yl)ethan-1-one]	33	777
COc1ccc(-c2[nH]c3ccc(C4CCN(C(=O)CN5CCC[C@H](C(=O)NCCNC(C)=O)C5)CC4)cc3c2C(C)C)cc1OC [Example 295, (S)—N-(2-acetamidoethyl)-1-(2-(4-(2-(3,4-dimethoxyphenyl)-3-isopropyl-1H-indol-5-yl)piperidin-1-yl)-2-oxoethyl) piperidine-3-carboxamide]	22	5310
COc1ccc(-c2[nH]c3ccc(C4CCN(C(=O)CN5CCC[C@H](C(=O)NC6(CO)CCCC6)C5)CC4)cc3c2C(C)C)cc1OC [Example 296, (S)-1-(2-(4-(2-(3,4-dimethoxyphenyl)-3-isopropyl-1H-indol-5-yl)piperidin-1-yl)-2-oxoethyl)-N-(1-(hydroxymethyl)cyclopentyl)piperidine-3-carboxamide]	22	3030
COc1ccc(-c2[nH]c3ccc(C4CCN(C(=O)CN5CCC[C@H](C(=O)NCC#N)C5)CC4)cc3c2C(C)C)cc1OC [Example 297, (S)—N-(cyanomethyl)-1-(2-(4-(2-(3,4-dimethoxyphenyl)-3-isopropyl-1H-indol-5-yl)piperidin-1-yl)-2-oxoethyl)piperidine-3-carboxamide]	19	3050
COc1ccc(-c2[nH]c3ccc(C4CCN(C(=O)CN5CCC[C@H](C(=O)NCC(N)=O)C5)CC4)cc3c2C(C)C)cc1OC [Example 298, (S)—N-(2-amino-2-oxoethyl)-1-(2-(4-(2-(3,4-dimethoxyphenyl)-3-isopropyl-1H-indol-5-yl)piperidin-1-yl)-2-oxoethyl)piperidine-3-carboxamide]	27	3940
COc1ccc(-c2[nH]c3ccc(C4CCN(C(=O)CN5CCC[C@H](C(=O)N6CC7CNCC7C6)C5)CC4)cc3c2C(C)C)cc1OC (stereo partly drawn) [Example 299, 1-(4-(2-(3,4-dimethoxyphenyl)-3-isopropyl-1H-indol-5-yl)piperidin-1-yl)-2-((3 S)-3-(octahydropyrrolo[3,4-c]pyrrole-2-carbonyl)piperidin-1-yl)ethan-1-one]	128	6990
COc1ccc(-c2[nH]c3ccc(C4CCN(C(=O)CN5CCC[C@H](C(=O)N6C(C)CCC6C)C5)CC4)cc3c2C(C)C)cc1OC (stereo partly drawn) [Example 300, 1-(4-(2-(3,4-dimethoxyphenyl)-3-isopropyl-1H-indol-5-yl)piperidin-1-yl)-2-((3S)-3-(2,5-dimethylpyrrolidine-1-carbonyl)piperidin-1-yl)ethan-1-one]	70	321
COc1ccc(-c2[nH]c3ccc(C4CCN(C(=O)CN5CCC[C@H](C(=O)N6CC[C@H](O)C6)C5)CC4)cc3c2C(C)C)cc1OC [Example 301, 1-(4-(2-(3,4-dimethoxyphenyl)-3-isopropyl-1H-indol-5-yl)piperidin-1-yl)-2-((S)-3-((S)-3-hydroxypyrrolidine-1-carbonyl)piperidin-1-yl)ethan-1-one]	19	3120

Now from value to compound:

IC50 (human TLR8) [nM]	IC50 (human TLR9) [nM]	Compound
14	502	COc1ccc(-c2[nH]c3ccc(C4CCN(C(=O)CN5CCC[C@H](C(=O)N6CCC(N(C)C)CC6)C5)CC4)cc3c2C(C)C)cc1OC [Example 289, (S)-1-(4-(2-(3,4-dimethoxyphenyl)-3-isopropyl-1H-indol-5-yl)piperidin-1-yl)-2-(3-(4-(dimethylamino)piperidine-1-carbonyl)piperidin-1-yl)ethan-1-one]
803	5340	COc1ccc(-c2[nH]c3ccc(C4CCN(C(=O)CN5CCC[C@H](C(=O)N6CCN(c7cccc(C(F)(F)F)c7)CC6)C5)CC4)cc3c2C(C)C)cc1OC [Example 290, (S)-1-(4-(2-(3,4-dimethoxyphenyl)-3-isopropyl-1H-indol-5-yl)piperidin-1-yl)-2-(3-(4-(3-(trifluoromethyl)phenyl)piperazine-1-carbonyl)piperidin-1-yl)ethan-1-one]
17	2310	COc1ccc(-c2[nH]c3ccc(C4CCN(C(=O)CN5CCC[C@H](C(=O)N6CCC(CCO)CC6)C5)CC4)cc3c2C(C)C)cc1OC [Example 291, (S)-1-(4-(2-(3,4-dimethoxyphenyl)-3-isopropyl-1H-indol-5-yl)piperidin-1-yl)-2-(3-(4-(2-hydroxyethyl)piperidine-1-carbonyl)piperidin-1-yl)ethan-1-one]
554	2220	COc1ccc(-c2[nH]c3ccc(C4CCN(C(=O)CN5CCC[C@H](C(=O)N6CCN(Cc7ccc(Br)cc7)CC6)C5)CC4)cc3c2C(C)C)cc1OC [Example 294, (S)-2-(3-(4-(4-bromobenzyl)piperazine-1-carbonyl)piperidin-1-yl)-1-(4-(2-(3,4-dimethoxyphenyl)-3-isopropyl-1H-indol-5-yl)piperidin-1-yl)ethan-1-one]
18	564	COc1ccc(-c2[nH]c3ccc(C4CCN(C(=O)CN5CCC[C@@H](C(=O)N6CCN(C(C)C)CC6)C5)CC4)cc3c2C(C)C)cc1OC [Example 302, (R)-1-(4-(2-(3,4-dimethoxyphenyl)-3-isopropyl-1H-indol-5-yl)piperidin-1-yl)-2-(3-(4-isopropylpiperazine-1-carbonyl)piperidin-1-yl)ethan-1-one]
31	1790	COc1ccc(-c2[nH]c3ccc(C4CCN(C(=O)CN5CCC[C@@H](C(=O)N6CCCC6)C5)CC4)cc3c2C(C)C)cc1OC [Example 303, (R)-1-(4-(2-(3,4-dimethoxyphenyl)-3-isopropyl-1H-indol-5-yl)piperidin-1-yl)-2-(3-(pyrrolidine-1-carbonyl)piperidin-1-yl)ethan-1-one]
